Experiments:
BflsABN43B = biological target: T1, BflsABN43B (Bifidobacterium longum, UniProt A0A087B7X0); assay: TLC of hydrolysis products; assay type: biochemical; conditions: 0.5% substrate, optimal conditions (pH 6.0, 50 °C)
T1 construct: gene BLSS_1420; full length, 581 aa, 65 kDa, C-terminal His6, E. coli BL21(DE3); starts MTATTS by primer
T1 sequence (A0A087B7X0 1-581): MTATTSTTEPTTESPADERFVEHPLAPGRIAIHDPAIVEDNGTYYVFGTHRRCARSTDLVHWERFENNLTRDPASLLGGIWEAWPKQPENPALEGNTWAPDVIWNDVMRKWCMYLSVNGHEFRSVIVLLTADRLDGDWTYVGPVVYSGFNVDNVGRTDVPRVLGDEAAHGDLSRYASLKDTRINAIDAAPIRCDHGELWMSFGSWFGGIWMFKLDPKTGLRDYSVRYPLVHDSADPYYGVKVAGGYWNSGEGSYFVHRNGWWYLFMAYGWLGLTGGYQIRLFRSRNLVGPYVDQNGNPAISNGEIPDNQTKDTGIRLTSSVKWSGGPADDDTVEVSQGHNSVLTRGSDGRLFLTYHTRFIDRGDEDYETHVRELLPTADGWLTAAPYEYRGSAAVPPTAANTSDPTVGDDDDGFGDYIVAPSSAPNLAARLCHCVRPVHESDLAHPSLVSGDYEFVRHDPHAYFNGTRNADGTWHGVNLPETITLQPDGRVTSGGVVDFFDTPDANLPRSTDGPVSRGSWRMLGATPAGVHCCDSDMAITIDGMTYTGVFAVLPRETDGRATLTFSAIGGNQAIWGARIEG

BflsABN43A = biological target: T2, BflsABN43A (Bifidobacterium longum, UniProt A0A087B7X1); assay: TLC of hydrolysis products; assay type: biochemical; conditions: 0.5% substrate, optimal conditions (pH 5.0, 45 °C)
T2 construct: gene BLSS_1421; 531 aa (56 kDa) printed; 35-residue signal peptide removed (primer deltaS; starts M-SSNAKN by primer), C-terminal His6, E. coli; caution: same WP id also printed for BflsABF43A (710 aa)
T2 sequence (A0A087B7X1 36-531): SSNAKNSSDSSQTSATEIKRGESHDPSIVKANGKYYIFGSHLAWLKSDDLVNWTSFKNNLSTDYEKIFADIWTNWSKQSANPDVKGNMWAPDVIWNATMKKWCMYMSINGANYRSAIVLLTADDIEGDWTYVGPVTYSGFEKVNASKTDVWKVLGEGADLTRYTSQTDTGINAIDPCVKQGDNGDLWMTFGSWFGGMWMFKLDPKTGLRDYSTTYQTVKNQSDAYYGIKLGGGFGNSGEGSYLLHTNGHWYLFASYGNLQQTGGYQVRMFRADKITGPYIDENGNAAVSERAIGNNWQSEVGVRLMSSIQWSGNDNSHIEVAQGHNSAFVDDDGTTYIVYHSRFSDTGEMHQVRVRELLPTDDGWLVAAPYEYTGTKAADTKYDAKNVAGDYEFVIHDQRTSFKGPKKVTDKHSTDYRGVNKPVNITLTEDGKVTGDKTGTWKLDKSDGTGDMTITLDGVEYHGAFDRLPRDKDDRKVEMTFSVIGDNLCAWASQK

Question: How did the “TLC of hydrolysis products” value (BflsABN43B) turn out when `OC[C@@H]1O[C@@H](OC[C@@H]2O[C@@H](OC[C@@H]3O[C@@H](OC[C@@H]4O[C@@H](OC[C@@H]5O[C@@H](OC[C@@H]6OC(O)[C@H](O)[C@H]6O)[C@H](O)[C@H]5O)[C@H](O)[C@H]4O)[C@H](O)[C@H]3O)[C@H](O)[C@H]2O)[C@H](O)[C@H]1O` (some centres unmarked) [A6, arabinohexaose] was run?
Answer: both ABNs demonstrated detectable hydrolytic activities to produce A2 and arabinotetraose (A4)

Question: And the “TLC of hydrolysis products” value (BflsABN43A)?
Answer: both ABNs demonstrated detectable hydrolytic activities to produce A2 and arabinotetraose (A4)

Source: paper PMC10970622, “Functional Characterization of Endo- and Exo-Hydrolase Genes in Arabinan Degradation Gene Cluster of Bifidobacterium longum subsp. suis” (International Journal of Molecular Sciences, 2024)
